Test results as given in patent EP3898610B1, “NOVEL AZA-HEXAPHENE ANTIBIOTIC COMPOUNDS” (Fondazione Istituto Insubrico di Ricerca per la Vita, priority 2018, dated 2020).
In brackets after ≈: the same amount, converted by molar mass. Where two headings read alike, the source gives them in different places.

Key:
[1] = system: L1400 S. aureus HA-MRSA; experiment: MIC, broth microdilution (CLSI); format: cell-based; conditions: Staphylococcus aureus; L1400 S. aureus HA-MRSA; cation-adjusted Mueller Hinton Broth, 35°C, 18-24 hours; read-out: MIC
Protocol: (§1) Antibacterial activity. […] Each bacterial strain was inoculated with 2-5×10^5 CFU/ml, Candida albicans with 10^4 CFU/ml. Cultures were incubated at 35°C in air. After 18-24 hours visual readings were performed and MICs (Minimal Inhibitory Concentrations) determined. The effect of 30% bovine serum was determined under the same experimental conditions. The strains used were clinical isolates or strains from American Type Culture Collection (ATCC).

[2] = system: L1730 S. haemolyticus; experiment: MIC, broth microdilution (CLSI); format: cell-based; conditions: Staphylococcus haemolyticus; L1730 S. haemolyticus; cation-adjusted Mueller Hinton Broth, 35°C, 18-24 hours; read-out: MIC
Protocol: as §1

[3] = system: L559 E. faecalis; experiment: MIC, broth microdilution (CLSI); format: cell-based; conditions: Enterococcus faecalis; L559 E. faecalis; cation-adjusted Mueller Hinton Broth, 35°C, 18-24 hours; read-out: MIC
Protocol: as §1

[4] = system: L4061 S. aureus MRSA - GISA; experiment: MIC, broth microdilution (CLSI); format: cell-based; conditions: Staphylococcus aureus; L4061 S. aureus MRSA - GISA; cation-adjusted Mueller Hinton Broth, 35°C, 18-24 hours; read-out: MIC
Protocol: as §1

[5] = system: L47 E. coli; experiment: MIC, broth microdilution (CLSI); format: cell-based; conditions: Escherichia coli; L47 E. coli; cation-adjusted Mueller Hinton Broth, 35°C, 18-24 hours; read-out: MIC
Protocol: as §1

[6] = system: VA80201 S. aureus CA-MRSA; experiment: MIC, broth microdilution (CLSI); format: cell-based; conditions: Staphylococcus aureus; VA80201 S. aureus CA-MRSA; cation-adjusted Mueller Hinton Broth, 35°C, 18-24 hours; read-out: MIC
Protocol: as §1

[7] = system: L568 E. faecium; experiment: MIC, broth microdilution (CLSI); format: cell-based; conditions: Enterococcus faecium; L568 E. faecium; cation-adjusted Mueller Hinton Broth, 35°C, 18-24 hours; read-out: MIC
Protocol: as §1

[8] = system: L819 S. aureus Smith; experiment: MIC, broth microdilution (CLSI); format: cell-based; conditions: Staphylococcus aureus; L819 S. aureus Smith; cation-adjusted Mueller Hinton Broth, 35°C, 18-24 hours; read-out: MIC
Protocol: as §1

[9] = system: VA8101 S. agalactiae (Group B); experiment: MIC, broth microdilution (CLSI); format: cell-based; conditions: Streptococcus agalactiae; VA8101 S. agalactiae (Group B); Todd Hewitt medium, 35°C, 18-24 hours; read-out: MIC
Protocol: as §1

[10] = system: L49 S. pyogenes C203; experiment: MIC, broth microdilution (CLSI); format: cell-based; conditions: Streptococcus pyogenes; L49 S. pyogenes C203; Todd Hewitt medium, 35°C, 18-24 hours; read-out: MIC
Protocol: as §1

[11] = system: L1729 S. haemolyticus MDR; experiment: MIC, broth microdilution (CLSI); format: cell-based; conditions: Staphylococcus haemolyticus; L1729 S. haemolyticus MDR; cation-adjusted Mueller Hinton Broth, 35°C, 18-24 hours; read-out: MIC
Protocol: as §1

[12] = system: L100 S. aureus ATCC6538P; experiment: MIC, broth microdilution (CLSI); format: cell-based; conditions: Staphylococcus aureus; L100 S. aureus ATCC6538P; cation-adjusted Mueller Hinton Broth, 35°C, 18-24 hours; read-out: MIC
Protocol: as §1

[13] = system: L560 E. faecalis VanA; experiment: MIC, broth microdilution (CLSI); format: cell-based; conditions: Enterococcus faecalis; L560 E. faecalis VanA; cation-adjusted Mueller Hinton Broth, 35°C, 18-24 hours; read-out: MIC
Protocol: as §1

[14] = system: L1577 S. epidermidis; experiment: MIC, broth microdilution (CLSI); format: cell-based; conditions: Staphylococcus epidermidis; L1577 S. epidermidis; cation-adjusted Mueller Hinton Broth, 35°C, 18-24 hours; read-out: MIC
Protocol: as §1

[15] = system: L44 S. pneumoniae; experiment: MIC, broth microdilution (CLSI); format: cell-based; conditions: Streptococcus pneumoniae; L44 S. pneumoniae; Todd Hewitt medium, 35°C, 18-24 hours; read-out: MIC
Protocol: as §1

[16] = system: L569 E. faecium VanA; experiment: MIC, broth microdilution (CLSI); format: cell-based; conditions: Enterococcus faecium; L569 E. faecium VanA; cation-adjusted Mueller Hinton Broth, 35°C, 18-24 hours; read-out: MIC
Protocol: as §1

[17] = system: VA801801 L. monocytogenes; experiment: MIC, broth microdilution (CLSI); format: cell-based; conditions: Listeria monocytogenes, 35°C, 18-24 hours
Protocol: (§2) Antibacterial activity. The antimicrobial activity of the antibiotic 103/33-F710 was determined by the broth microdilution method according to the procedures published by the Clinical and Laboratory Standards Institute (CLSI), formerly the National Committee for Clinical Laboratory Standards (NCCLS) (document M07-A9). Microorganisms were grown in either cation-adjusted Mueller Hinton Broth (Staphylococci, Enterococci, Moraxella catarrhalis, Escherichia coli), Todd Hewitt medium (Streptococci) or RPMI 1640 medium for Candida albicans on 96-well microtiter plates. Each bacterial strain was inoculated with 2-5×10^5 CFU/ml, Candida albicans with 10^4 CFU/ml. Cultures were incubated at 35°C in air. After 18-24 hours visual readings were performed and MICs (Minimal Inhibitory Concentrations) determined. The effect of 30% bovine serum was determined under the same experimental conditions. The strains used were clinical isolates or strains from American Type Culture Collection (ATCC). The antibiotic 103/33-F710 was dissolved in DMSO to obtain a 1000 µg/ml stock solution, and subsequently diluted in water to obtain working solution. Table 5: Antimicrobial activity reported as MIC (µg/ml) of ID103/33-F710

[18] = system: VA827901 B. cereus; experiment: MIC, broth microdilution (CLSI); format: cell-based; conditions: Bacillus cereus, 35°C, 18-24 hours
Protocol: as §2

[19] = system: VA645601 B. clausii; experiment: MIC, broth microdilution (CLSI); format: cell-based; conditions: Shouchella clausii, 35°C, 18-24 hours
Protocol: as §2

[20] = Stability as a function of pH; format: physicochemical; conditions: basic pH
Protocol: (§3) Solubility of compound 1 (103/33 F-710) was poor in most low to medium- polarity organic solvents, as well as in water from acidic to neutral pH; it was more soluble at basic pH and stable up to pH 8-9, while in alcohols it ranged between 5-10 mg/ml. […] Some crystallizations trials were performed on compound 1 (103/33 F-710) in order to obtain suitable crystals for the X-ray structural characterization.

[21] = system: human erythrocytes; experiment: Hemolytic activity; format: cell-based
[22] = system: L145 C. albicans; experiment: MIC, broth microdilution (CLSI); format: cell-based; conditions: Candida albicans
Protocol: as §2
Antibacterial activity. The antimicrobial activity of the antibiotic 103/33-F696 was determined by the broth microdilution method according to the procedures disclosed in Example 7. Table 6: Antimicrobial activity reported as MIC (µg/ml) of compound 2 (103/33-F696)
Antibacterial activity. The antimicrobial activity of the antibiotic 103/33-F712 was determined by the broth microdilution method according to the procedures disclosed in Example 7. Table 7: Antimicrobial activity reported as MIC (µg/ml) of ID103/33-F712

[23] = system: BJ5TA - ATCC CRL-4401 normal fibroblast; experiment: Cytotoxicity against human cells; format: cell-based; conditions: at 200 µg/ml, the highest concentration tested
[24] = system: L4187 E. faecium VanA - Lnz R - Cpx R; experiment: microbe, parasite or virus in culture; format: cell-based; conditions: Enterococcus faecium; L4187 E. faecium VanA - Lnz R - Cpx R; cation-adjusted Mueller Hinton Broth, 35°C, 18-24 hours; read-out: MIC
Protocol: as §1

[25] = system: HepG2 cells from hepatocarcinoma; experiment: Cytotoxicity against human cells; format: cell-based; conditions: at 200 µg/ml, the highest concentration tested
[26] = Solubility; format: physicochemical
Protocol: as §3

[27] = system: Staphylococcus aureus Smith 819 ATCC 19636; experiment: Murine septicemia model; format: in vivo; conditions: ATCC19636, intravenous administrations
Excerpt: Effectiveness. […] This level of protection was observed after intravenous administrations.

[28] = system: Hela cells from cervix adenocarcinoma; experiment: Cytotoxicity against human cells; format: cell-based; conditions: at 200 µg/ml

Molecule COc1c(OC)c2c(=O)c3cc(C)n(C(CC4CN(C)C(=N)N4)C(=O)O)c(=O)c3c(=O)c2c2cc3c(=O)c4cc(O)cc(O)c4c(=O)c3c(OC)c12 (stereo not shown) [compound 1, 2-(10,12-Dihydroxy-6,7,8-trimethoxy-3-methyl-1,5,9,14,16-pentaoxo-5,9,14,16-tetrahydro-1H-2-aza-hexaphen-2-yl)-3-(2-imino-1-methyl-imidazolidin-4-yl)-propionic acid] has an MIC [1] of 0.03 µg/mL (≈ 0.0422 µM), an MIC [2] of 0.03 µg/mL (≈ 0.0422 µM) and an MIC [3] of 0.03 µg/mL (≈ 0.0422 µM). It also gave an MIC [4] of 0.06 µg/mL (≈ 0.0844 µM), an MIC [5] greater than 256 µg/mL and an MIC [6] of 0.015 µg/mL (≈ 0.0211 µM). It also gave an MIC [7] of 2 µg/mL (≈ 2.81 µM), an MIC [8] of 0.06 µg/mL (≈ 0.0844 µM) and an MIC [9] of 8 µg/mL (≈ 11.3 µM). The MIC [10] was 16 µg/mL (≈ 22.5 µM), the MIC [11] was 0.016 µg/mL (≈ 0.0225 µM) and the MIC [12] was 0.03 µg/mL (≈ 0.0422 µM). For the same molecule, the MIC [13] was 0.03 µg/mL (≈ 0.0422 µM), the MIC [14] was 0.06 µg/mL (≈ 0.0844 µM) and the MIC [15] was 16 µg/mL (≈ 22.5 µM). It also gave an MIC [16] of 2 µg/mL (≈ 2.81 µM), an MIC [17] of 0.06 µg/mL (≈ 0.0844 µM) and an MIC [18] of 0.06 µg/mL (≈ 0.0844 µM). For the same molecule, the MIC [19] was 0.125 µg/mL (≈ 0.176 µM), the “stable up to pH” value [20] was 8-9 and the hemolytic activity [21] was “no hemolytic activity”. For the same molecule, the MIC ([22]; L145 C. albicans, RPMI 1640 medium, 10^4 CFU/ml, 35°C, 18-24 hours, read-out: MIC) was 256 µg/mL (≈ 360 µM), the “toxicity against human cells” value [23] was “no toxicity” and the MIC [24] was 2 µg/mL (≈ 2.81 µM). The “toxicity against human cells” value [25] was “no toxicity”, the Solubility ([26]; acetone) was “scarcely soluble” and the Solubility ([26]; at basic pH) was “more soluble”. For the same molecule, the Solubility ([26]; dimethylformamide (DMF)) was “soluble”, the Solubility ([26]; methanol (MeOH)) was “scarcely soluble” and the Solubility ([26]; most low to medium- polarity organic solvents) was “poor”. The Solubility ([26]; organic solvent or mixture, dimethylsulfoxide (DMSO), read-out: Solubility) was greater than 50000 µg/mL, the Solubility ([26]; organic solvent or mixture, in alcohols, read-out: Solubility) was 5000 to 10000 µg/mL (≈ 7040 to 14100 µM) and the Solubility ([26]; water from acidic to neutral pH) was “poor”. For the same molecule, the ED50 [27] was 15 mg/kg, the “toxicity against human cells” value ([28]; Hela cells, the highest concentration tested) was “no toxicity” and the “inhibit replication of HeLa cell” value [28] was “does not inhibit”.

Work on C[C@@H]1[C@H](O)[C@@H](C)/C=C/C=C/C=C/C=C/C=C/C=C/C=C/[C@H](O[C@@H]2O[C@H](C)[C@@H](O)[C@H](N)[C@@H]2O)C[C@@H]2O[C@](O)(C[C@@H](O)C[C@@H](O)[C@H](O)CC[C@@H](O)C[C@@H](O)CC(=O)O[C@H]1C)C[C@H](O)[C@H]2C(=O)O [amphotericin B, reference compound] yielded an MIC [22] of 0.5 µg/mL (≈ 0.541 µM).
